The values below come from PubChem BioAssay (NCI).

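1) Cells in 96-well plates. 2) Compound, 48 h, 5 concentrations. 3) Linear interpolation between surrounding doses. 4) Unreached endpoint = highest concentration. GI50: concentration for 50% inhibition of growth. TGI: concentration producing complete growth inhibition.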

Some test systems named below: IGROV1 ovarian; CCRF-CEM leukemia; HOP-92 NSCLC; NCI-H522 lung; A498 renal; EKVX NSCLC; A549 NSCLC; SNB-19 CNS; HOP-62 NSCLC; MDA-MB-231 breast.
Common to all, as to test: inhibition of tumour cell growth, NCI panel, 48 h

Consider `COc1ccc(-c2cc3cccc(OC)c3c(=O)o2)cc1OC`, for which the GI50 in the assay with IGROV1 ovarian is more than 100 µM; in the assay on CCRF-CEM leukemia, 30.9 µM; with HOP-92 NSCLC it was 37.2 µM; in the assay on NCI-H522 lung, 48.6 µM; in the assay on A498 renal, 81.7 µM; in the assay with EKVX NSCLC, 0.83 µM. Moreover, the GI50 in the assay with A549 NSCLC is 59.4 µM; with SNB-19 CNS, 41.3 µM; with HOP-62 NSCLC, 62.5 µM; in the assay on MDA-MB-231 breast, 22.8 µM. Besides, the TGI is more than 100 µM with IGROV1 ovarian; more than 100 µM in the assay on CCRF-CEM leukemia; more than 100 µM in the assay on HOP-92 NSCLC; more than 100 µM in the assay on NCI-H522 lung; more than 100 µM in the assay with A498 renal; 39.5 µM with EKVX NSCLC. The TGI in the assay with A549 NSCLC, in the assay on SNB-19 CNS, with HOP-62 NSCLC and with MDA-MB-231 breast was more than 100 µM each time.
`CCOC(=O)C1NCCc2c1[nH]c1ccccc21` (configuration not stated): the TGI in the assay with IGROV1 ovarian, in the assay on CCRF-CEM leukemia, in the assay with HOP-92 NSCLC, in the assay with NCI-H522 lung, in the assay on EKVX NSCLC and in the assay on A549 NSCLC was more than 10 µM each time. The TGI with HOP-62 NSCLC and with MDA-MB-231 breast was more than 10 µM each time.
For `CC1=CC[C@@H]2[C@@H](CC[C@@]2(C)O)C(C)(C)[C@H]1CC[C@@H]1[C@@]2(C)CCC(=O)C(C)(C)O[C@@H]2CC[C@]1(C)O`, the TGI was 76.5 µM with IGROV1 ovarian; 48 µM in the assay with CCRF-CEM leukemia; 38.9 µM in the assay with NCI-H522 lung; 73 µM with A498 renal; more than 100 µM in the assay on EKVX NSCLC; more than 100 µM in the assay on A549 NSCLC. The TGI in the assay on SNB-19 CNS, in the assay on HOP-62 NSCLC and in the assay on MDA-MB-231 breast was more than 100 µM throughout.
For `COC1=CC(c2ccc[nH]2)=N/C1=C\c1[nH]c(C)c(C(=O)CCC(=O)Oc2ccc3c(c2)CCC2C3CC[C@]3(C)C(=O)CC[C@@H]23)c1C` (some centres not stated), the GI50 in the assay on IGROV1 ovarian is 8.3 µM; in the assay on CCRF-CEM leukemia, 0.527 µM; in the assay with HOP-92 NSCLC it was 2.09 µM; with NCI-H522 lung it was 4.71 µM; in the assay with A498 renal, 7.94 µM; with A549 NSCLC, 2.65 µM. Besides, the GI50 with SNB-19 CNS was 17.7 µM; with HOP-62 NSCLC it was 18.2 µM; in the assay with MDA-MB-231 breast, 0.276 µM. The TGI in the assay with IGROV1 ovarian is more than 100 µM; in the assay on CCRF-CEM leukemia it was more than 100 µM; in the assay with HOP-92 NSCLC, 16.5 µM; in the assay with NCI-H522 lung, 60.1 µM; in the assay with A498 renal it was 57.4 µM; in the assay with A549 NSCLC it was more than 100 µM. Moreover, the TGI in the assay on SNB-19 CNS was more than 100 µM; in the assay on HOP-62 NSCLC it was 66 µM; with MDA-MB-231 breast, 1.19 µM.
Regarding `COc1ccc(-c2cc3c4c(nc5ccccc5c4c2)CC(c2cc(OC)c(OC)c(OC)c2)O3)cc1` (configuration not stated), the GI50 in the assay on IGROV1 ovarian was 2.66 µM; in the assay on CCRF-CEM leukemia, more than 100 µM; in the assay with HOP-92 NSCLC, 1.62 µM; with NCI-H522 lung it was 2.63 µM; in the assay with A498 renal, 3.39 µM; in the assay on EKVX NSCLC, 5.01 µM. Besides, the GI50 in the assay with SNB-19 CNS is 3.3 µM; in the assay with HOP-62 NSCLC, 2.98 µM; in the assay with MDA-MB-231 breast it was 2.15 µM. Also, the TGI is 12.6 µM in the assay on IGROV1 ovarian; more than 100 µM in the assay on CCRF-CEM leukemia; 4.71 µM in the assay on HOP-92 NSCLC; 13.9 µM in the assay on NCI-H522 lung; 13.4 µM in the assay on A498 renal; more than 100 µM in the assay on EKVX NSCLC. Further, the TGI in the assay on SNB-19 CNS was determined as 12.8 µM; in the assay with HOP-62 NSCLC, 12.5 µM; in the assay with MDA-MB-231 breast, 7.16 µM.
In the case of `CC1OCC2OC(C)OC(C3C4=C(CC(C)(C)CC4=O)OC4=C3C(=O)CC(C)(C)C4)C2O1` (configuration not stated), the TGI in the assay with CCRF-CEM leukemia, in the assay on HOP-92 NSCLC, in the assay on NCI-H522 lung, with A498 renal, with EKVX NSCLC and in the assay with A549 NSCLC was more than 100 µM each time. Moreover, the TGI in the assay on SNB-19 CNS, in the assay on HOP-62 NSCLC and in the assay on MDA-MB-231 breast was more than 100 µM throughout.
As to `COCCNCC(O)Cn1c2ccc(Cl)cc2c2cc(Cl)ccc21` (configuration not stated), the GI50 in the assay with CCRF-CEM leukemia was 1.92 µM; in the assay with HOP-92 NSCLC, 1.57 µM; in the assay on NCI-H522 lung, 2.03 µM; in the assay with A498 renal, 1.73 µM; in the assay on A549 NSCLC, 1.79 µM; in the assay on SNB-19 CNS it was 3.48 µM. Further, the GI50 with HOP-62 NSCLC is 1.87 µM; in the assay with MDA-MB-231 breast it was 1.67 µM. Further, the TGI in the assay with CCRF-CEM leukemia was determined as 4.25 µM; in the assay on HOP-92 NSCLC, 5.17 µM; in the assay with NCI-H522 lung it was 3.89 µM; in the assay with A498 renal it was 5.32 µM; in the assay with A549 NSCLC, 3.74 µM; in the assay with SNB-19 CNS, 16.6 µM. The results for the TGI with HOP-62 NSCLC and with MDA-MB-231 breast were 3.45 µM and 3.4 µM, respectively.
Regarding `c1ccc2c(c1)O[As](O[As]1Oc3ccccc3O1)O2`, the GI50 in the assay with IGROV1 ovarian is 1.56 µM; in the assay on CCRF-CEM leukemia, 0.434 µM; in the assay with HOP-92 NSCLC, 0.86 µM; in the assay on NCI-H522 lung, 0.548 µM; in the assay on A498 renal, 1.6 µM; in the assay with A549 NSCLC it was 12 µM. The GI50 is 5.56 µM in the assay with SNB-19 CNS, 3.62 µM in the assay on HOP-62 NSCLC and 2.11 µM with MDA-MB-231 breast. In addition, the TGI in the assay with IGROV1 ovarian came to 10.5 µM; in the assay with CCRF-CEM leukemia, 10.8 µM; with HOP-92 NSCLC it was 5.31 µM; in the assay on NCI-H522 lung it was 2.06 µM; in the assay on A498 renal, 5.64 µM; in the assay with A549 NSCLC, 47.8 µM. The TGI is 19.6 µM in the assay on SNB-19 CNS, 14.2 µM with HOP-62 NSCLC and 10.7 µM in the assay on MDA-MB-231 breast.
Take `Nc1ccccc1C#C/C=C\C#Cc1ccc(F)cc1F`: the GI50 is 12.7 µM in the assay with IGROV1 ovarian; 0.444 µM in the assay with CCRF-CEM leukemia; 18.3 µM in the assay on HOP-92 NSCLC; 13.8 µM with NCI-H522 lung; 15.8 µM in the assay with A498 renal; 19.4 µM in the assay with EKVX NSCLC. The values for the GI50 in the assay on A549 NSCLC, with HOP-62 NSCLC and in the assay on MDA-MB-231 breast were 16.8 µM, 16 µM and 15.1 µM, respectively. Besides, the TGI in the assay on IGROV1 ovarian worked out at 40.7 µM; with CCRF-CEM leukemia, 10.9 µM; in the assay with HOP-92 NSCLC it was 59.7 µM; in the assay with NCI-H522 lung it was 35.2 µM; in the assay with A498 renal, 31.9 µM; in the assay on EKVX NSCLC, 57.8 µM. Moreover, the TGI in the assay with A549 NSCLC worked out at 67.7 µM; in the assay on HOP-62 NSCLC it was 30 µM; in the assay with MDA-MB-231 breast, 33.3 µM.
In the case of `O=C1Nc2ccc(F)c3c(OCCO)cc(-c4ccc[nH]4)c1c23`, the GI50 is 1.86 µM in the assay on IGROV1 ovarian; 0.99 µM in the assay on CCRF-CEM leukemia; 0.908 µM in the assay with HOP-92 NSCLC; 2.12 µM with NCI-H522 lung; 0.896 µM in the assay on A498 renal; 1.21 µM with A549 NSCLC. The GI50 was 3.66 µM in the assay with SNB-19 CNS, 3.07 µM in the assay with HOP-62 NSCLC and 2.03 µM in the assay on MDA-MB-231 breast. For the same compound, the TGI in the assay with IGROV1 ovarian turned out to be 10.4 µM; in the assay on CCRF-CEM leukemia, 11.1 µM; in the assay on HOP-92 NSCLC, 5.4 µM; in the assay on NCI-H522 lung, 11.6 µM; in the assay on A498 renal, 4.24 µM; in the assay on A549 NSCLC it was 8.57 µM. For the same compound, the TGI is 14.9 µM in the assay with SNB-19 CNS, 13.8 µM in the assay on HOP-62 NSCLC and 9.53 µM with MDA-MB-231 breast.
For `COc1ccc2c(c1)Oc1nc(N)c(C#N)c(N)c1C2Sc1ccc(SC)cc1` (configuration not stated), the GI50 in the assay with IGROV1 ovarian is 1.73 µM; in the assay on HOP-92 NSCLC it was 1.94 µM; in the assay with NCI-H522 lung, 1.65 µM; in the assay on A498 renal, 1.77 µM; with EKVX NSCLC, 1.66 µM; in the assay on A549 NSCLC it was 2 µM. Also, the GI50 with SNB-19 CNS is 1.77 µM; in the assay with HOP-62 NSCLC, 1.83 µM; in the assay with MDA-MB-231 breast it was 1.85 µM. Moreover, the TGI in the assay with IGROV1 ovarian was determined as 3.78 µM; in the assay with HOP-92 NSCLC, 3.56 µM; in the assay with NCI-H522 lung it was 3.08 µM; with A498 renal it was 3.3 µM; in the assay on EKVX NSCLC, 3.09 µM; in the assay on A549 NSCLC, 3.91 µM. Also, the TGI in the assay on SNB-19 CNS came to 3.18 µM; in the assay on HOP-62 NSCLC it was 3.49 µM; with MDA-MB-231 breast, 3.38 µM.
`O=C(NO)c1ccc(C(=O)NO)cc1`: the TGI in the assay on IGROV1 ovarian was more than 100 µM; with CCRF-CEM leukemia, 83.1 µM; with HOP-92 NSCLC it was more than 100 µM; in the assay with A498 renal, more than 100 µM; in the assay with EKVX NSCLC it was more than 100 µM; in the assay with A549 NSCLC, more than 100 µM. Also, the TGI in the assay on SNB-19 CNS, with HOP-62 NSCLC and in the assay with MDA-MB-231 breast was more than 100 µM in each case.
On to `CO/N=C(\c1ccccc1)c1cnn(-c2ccccc2)c1N`, for which the GI50 is more than 25 µM in the assay with IGROV1 ovarian; more than 25 µM in the assay with CCRF-CEM leukemia; more than 12.4 µM with HOP-92 NSCLC; more than 25 µM with NCI-H522 lung; more than 16.8 µM in the assay with A498 renal; more than 25 µM in the assay on A549 NSCLC. Moreover, the GI50 with SNB-19 CNS, in the assay with HOP-62 NSCLC and in the assay on MDA-MB-231 breast was more than 25 µM in each case. Also, the TGI with IGROV1 ovarian, with CCRF-CEM leukemia, in the assay on HOP-92 NSCLC, with NCI-H522 lung, in the assay on A498 renal and with A549 NSCLC was more than 25 µM each time. Also, the TGI in the assay with SNB-19 CNS, in the assay with HOP-62 NSCLC and in the assay on MDA-MB-231 breast was more than 25 µM throughout.
